Entries after “also recorded” stand apart in the source; their conditions may differ. Like-named read-outs stand apart in the source and are kept apart here.
How the values were obtained:
human mGlu5 [1] = target: T1, human mGlu5 (Homo sapiens, UniProt P41594); experiment: Calcium mobilization assay in human mGlu5-HEK293A cells (NAM, EC80 glutamate); assay type: cell-based; conditions: for %Glumin: efficacy of the NAM to reduce an EC80 response of glutamate
T1 construct: expressed in transfected cells

human mGlu5 [2] = target: T1, human mGlu5; conditions: previously published picolinamide series; read-out: hmGlu5 IC50; cited from earlier work
[3] = design: method as in PMID 30446311; conditions: cited from earlier work
[4] = cited from earlier work
[5] = rat, cited from earlier work
[6] = design: method as in PMID 28530802; conditions: NHP, 28-day study, AO metabolite accumulated after 14 days, nonmechanism based; cited from earlier work
[7] = Intrinsic clearance in rat liver microsomes; assay type: in vitro ADME; conditions: predicted hepatic clearance from in vitro rat microsomal data
Description: Intrinsic Clearance in Rat and Human Liver Microsomes
The in vitro intrinsic clearance (CL int) was investigated in commercially obtained hepatic microsomes from rat and human donors using the substrate depletion (i.e., loss-of-parent vs. time, or t 1/2 method) approach with analyte detection via liquid chromatography-tandem mass spectrometry (LC-MS/MS). For each species, mean %parent remaining values at each time point were calculated from replicates raw data (analyte:IS peak area ratios) and used to determine in vitro t 1/2 and CLint.
Experiments were carried out using a robot-assisted (TECAN model Evo 200). Compound was incubated (1 µM final concentration) in buffer (100 mM potassium phosphate pH 7.4 with 3 mM MgCl2) containing hepatic microsomes (0.5 mg/mL final concentration) from multiple species, discretely, at 37 °C under constant orbital shaking. After 5 minutes (pre-incubation), reactions were initiated by addition of nicotinamide adenine dinucleotide phosphate (NADPH, 1 mM final concentration). At selected time intervals (0, 3, 7, 15, 25, and 45 minutes) post-addition of NADPH, aliquots (50 µL) were taken and placed into a 96-shallow-well plate containing ice cold acetonitrile (150 µL) with carbamazepine (IS, 50 nM). The plates were then centrifuged (3000 rcf at 4 °C) for 10 minutes. The supernatants were transferred to a new 96-shallow-well daughter plate and diluted (1:1 v/v) with water (Milli-Q filtered). The plates were then sealed in preparation for LC-MS/MS analysis (see below).
Raw LC-MS/MS peak area data generated from the assay samples were used to construct natural log-transformed %parent remaining vs. time plots (using t = 0 minute post-NADPH addition sample data as starting point set to 100%). In vitro compound half-life (t 1/2) values were obtained using the following […]
k is the slope from linear regression analysis of the natural log-transformed data (using means from Where all replicates at each time point). Resulting t 1/2 values were then used to calculate hepatic CLint values according to the following equation and with the use of species-specific scale-up factors for liver weight (grams) per total body weight (kg):
CL = 0.693 x 1 mL incubation x 45 mg microsomes x a gram liver
int in vitro t1/2 0.5 mg microsomes 1 gram liver kg body wt aScale-up factors used are 45 (rat) and 20 (human).1
Predicted hepatic clearance (CLhep) was calculated using the following equation: […]
Qh represents hepatic blood flow (mL/min/kg): 21 for human, 70 for rat, and 90 for mouse.

[8] = Binding in plasma from human (equilibrium dialysis); assay type: in vitro ADME; conditions: fraction unbound
Description: Binding in plasma from rat and human.
Determination of compounds’ fraction unbound (f u) in plasma from rat and human was conducted in vitro via equilibrium dialysis using HTDialysis membrane plates. Dialysis membranes (four paired strips per HTD assay) were hydrated as described by the manufacturer and inserted into the HTD plate, which was assembled and prepared for sample addition by the dispensing of blank buffer (DPBS, 100 µL/well) into the ‘top half’ of each membrane-split well. Each compound was diluted into plasma from each species (5 µM final concentration), which was aliquoted in triplicate to the ‘bottom half’ of the prepared HTD plate wells. The HTD plate was sealed and incubated for 6 hours at 37 °C. Following incubation, each well (both top and bottom halves) were transferred (20 µL) to the corresponding wells of a 96-shallow-well (V-bottom) plate. The daughter plates were then matrix-matched (buffer side wells received equal volume of plasma, and plasma side wells received equal volume of buffer), and extraction solution (120 µL; acetonitrile containing 50 nM carbamazepine as IS) was added to all wells of both daughter plates to precipitate protein and extract test article. The plates were then sealed and centrifuged (3500 rcf) for 10 minutes at ambient temperature. Supernatant (60 µL) from each well of the daughter plates was then transferred to the corresponding wells of new daughter plates (96-shallow-well, V bottom) containing water (Milli-Q, 60 µL/well), and the plates were sealed in preparation for LC-MS/MS analysis (see below). fu was calculated as (analyte to IS MS peak area ratio from Trans-buffer side) / (analyte to IS MS peak area ratio from Cis-plasma side). Mean values for each species were calculated from 3 replicates. […]
Mean values for each species were calculated from 3 replicates.

[9] = design: method as in PMID 31589885; conditions: led to termination of trials; attributed to off-target MAO-B; cited from earlier work
M1 = test system: M1; design: method as in PMID 37101980; conditions: cited from earlier work
[10] = literature, cited from earlier work
[11] = human mGlu5-HEK293A cells, EC80 fixed concentration of glutamate, n = 2 in triplicate
[12] = human mGlu5-HEK293A cells, EC80 fixed concentration of glutamate, n = 2 in triplicate, read-out: IC50

T1 sequence (P41594 21-1212): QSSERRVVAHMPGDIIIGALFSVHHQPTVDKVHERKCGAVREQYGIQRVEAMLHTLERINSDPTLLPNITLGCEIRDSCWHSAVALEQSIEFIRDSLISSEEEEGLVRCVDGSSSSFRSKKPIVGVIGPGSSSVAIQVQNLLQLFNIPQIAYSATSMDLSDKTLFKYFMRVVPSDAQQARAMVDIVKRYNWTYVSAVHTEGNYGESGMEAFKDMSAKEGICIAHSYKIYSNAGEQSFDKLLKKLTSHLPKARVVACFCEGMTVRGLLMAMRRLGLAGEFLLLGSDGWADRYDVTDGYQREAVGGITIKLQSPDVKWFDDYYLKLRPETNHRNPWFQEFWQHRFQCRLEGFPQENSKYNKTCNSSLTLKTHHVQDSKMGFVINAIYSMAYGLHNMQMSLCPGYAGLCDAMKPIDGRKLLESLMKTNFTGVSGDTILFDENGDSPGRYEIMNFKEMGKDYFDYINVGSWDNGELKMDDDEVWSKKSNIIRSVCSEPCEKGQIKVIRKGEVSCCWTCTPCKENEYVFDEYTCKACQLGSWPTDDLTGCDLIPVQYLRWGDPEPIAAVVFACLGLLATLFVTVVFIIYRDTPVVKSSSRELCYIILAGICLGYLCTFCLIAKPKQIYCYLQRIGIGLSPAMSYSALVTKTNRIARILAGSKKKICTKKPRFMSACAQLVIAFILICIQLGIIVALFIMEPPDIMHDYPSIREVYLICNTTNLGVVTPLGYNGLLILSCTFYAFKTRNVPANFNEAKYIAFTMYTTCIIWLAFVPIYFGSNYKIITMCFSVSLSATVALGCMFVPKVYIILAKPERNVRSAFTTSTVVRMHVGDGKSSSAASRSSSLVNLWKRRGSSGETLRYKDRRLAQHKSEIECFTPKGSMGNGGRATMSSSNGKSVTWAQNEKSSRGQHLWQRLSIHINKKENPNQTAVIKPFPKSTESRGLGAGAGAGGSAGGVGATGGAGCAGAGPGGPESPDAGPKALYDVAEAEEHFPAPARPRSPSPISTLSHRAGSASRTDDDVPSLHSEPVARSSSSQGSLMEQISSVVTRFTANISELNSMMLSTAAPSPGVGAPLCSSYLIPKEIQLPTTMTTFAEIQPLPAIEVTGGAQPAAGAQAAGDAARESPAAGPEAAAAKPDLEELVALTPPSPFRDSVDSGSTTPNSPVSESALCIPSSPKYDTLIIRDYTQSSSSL

Structure (SMILES) | %Glumin (human mGlu5 [1]; human mGlu5-HEK293A cells) | pIC50 (human mGlu5 [1]; [11]) | IC50 (human mGlu5 [1]; [12]) | other results
Cc1nc(NC(=O)c2cc(O[C@@H]3CCOC3)c3sccc3n2)ccc1F [19aG] | 66% | < 5 | > 10 µM | –
Cc1coc(NC(=O)c2cc(O[C@@H]3CCOC3)c3sccc3n2)n1 [19aP] | 50% | < 5 | > 10 µM | –
Cc1cc(O[C@@H]2CCOC2)cc(C(=O)Nc2ccc(F)cn2)n1 [compound 11] | – | – | – | IC50 (human mGlu5 [2]): 0.022 µM; predicted hepatic clearance in rat (CLhep) [3]: 3.06 L/h/kg; rat brain:plasma K p,uu [4]: 0.79; oral bioavailability (%F) [5]: 5.5%
Cc1cc(Oc2cncnc2)cc(C(=O)Nc2ccc(F)cn2)n1 [compound 10, N-(5-Fluoropyridin-2-yl)-6-methyl-4-(pyrimidin-5-yloxy)picolinamide] | – | – | – | toxicology finding [6]: pronounced anemia
Cc1nsc(NC(=O)c2cc(O[C@@H]3CCOC3)c3sccc3n2)n1 [19aQ] | 73% | < 5 | > 10 µM | –
Cc1csc(NC(=O)c2cc(O[C@@H]3CCOC3)c3ccn(C)c3n2)n1 [19dA] | 2% | 7.04 | 0.093 µM | rat CLhep [7]: 3.14 L/h/kg; human f u,plasma [8]: 0.006
Cn1ccc2c(O[C@@H]3CCOC3)cc(C(=O)Nc3ccc(F)cn3)nc21 [19dB] | 12% | 5.98 | 1.06 µM | –
CCc1csc(NC(=O)c2cc(O[C@@H]3CCOC3)c3sccc3n2)n1 [19aH] | 6% | 5.62 | 2.56 µM | –
Cc1csc(NC(=O)c2cc(OC3CC(C#N)C3)c3sccc3n2)n1 (stereo not shown) [22i] | – | – | – | rat CLhep [7]: 2.89 L/h/kg; human f u,plasma [8]: 0.005
CN1CC(=O)N=C1NC(=O)Nc1cccc(Cl)c1 [fenobam] | – | – | – | adverse effect in clinical trials [9]: psychosis-like symptoms
O=C(Nc1ccc(F)cn1)c1cncc(O[C@@H]2CCOC2)c1 [27bB] | – | – | – | IC50 (nM) (human mGlu5 [1]; [11]): inactive
Cn1ccc2nc(C(=O)Nc3ccc(F)cn3)cc(O[C@@H]3CCOC3)c21 [19eB] | 46% | < 5 | > 10 µM | –
Cc1csc(NC(=O)c2cc(OC3CC(C)(C)OC3(C)C)c3sccc3n2)n1 (stereo not shown) [22b] | – | – | – | IC50 (nM) (human mGlu5 [1]; [11]): inactive
O=C(NCc1ccc(F)cn1)c1cc(Oc2cccnc2)c2sccc2n1 [compound 13] | – | – | – | M1 PAM (M1): > 30 µM
O=C(Nc1ccc(F)cn1)c1cc(O[C@@H]2CCOC2)c2sccc2n1 [19aB] | 2% | 7.22 | 0.061 µM | rat CLhep [7]: 3.31 L/h/kg; human f u,plasma [8]: 0.008
Cc1cc2nc(C(=O)Nc3ccc(F)cn3)cc(O[C@@H]3CCOC3)c2s1 [19cB] | – | – | – | IC50 (nM) (human mGlu5 [1]; [11]): inactive

Structure (SMILES) | %Glumin (human mGlu5 [1]; human mGlu5-HEK293A cells) | pIC50 (human mGlu5 [1]; [11]) | IC50 (human mGlu5 [1]; [12]) | other results
Cc1cccc(NC(=O)c2cc(O[C@@H]3CCOC3)c3sccc3n2)c1 [19aE] | 2% | 6.08 | 0.845 µM | –
N#Cc1cc(F)cc(-c2nc(-c3ccc(F)cn3)no2)c1 [AZD9272] | – | – | – | adverse effect in clinical trials [9]: psychosis-like symptoms
Cc1csc(NC(=O)c2cc(O[C@@H]3CCOC3)c3ccccc3n2)n1 [19fA] | 6% | 6.74 | 0.192 µM | –
N#Cc1csc(NC(=O)c2cc(O[C@@H]3CCOC3)c3sccc3n2)n1 [19aN] | 3% | 6.27 | 0.559 µM | –
O=C(Nc1nc(CF)cs1)c1cc(O[C@@H]2CCOC2)c2sccc2n1 [19aL] | 2% | 7.27 | 0.055 µM | rat CLhep [7]: 2.51 L/h/kg; human f u,plasma [8]: 0.016
O=C(Nc1cccc(F)n1)c1cc(O[C@@H]2CCOC2)c2sccc2n1 [19aC] | 6% | 5.98 | 1.07 µM | IC50 (human mGlu5 [1]; in μM, read-out: hmGlu5 IC50): 1.1 µM
O=C(Nc1ccc(F)cn1)c1cc(O[C@@H]2CCOC2)ncn1 [27eB] | – | – | – | IC50 (nM) (human mGlu5 [1]; [11]): inactive
Cc1csc(NC(=O)c2cc(F)cc(Oc3cncnc3)c2)n1 [VU0409106] | – | – | – | %F ([5]; in vivo): < 5%
O=C(c1ccc(OC(F)F)c(C#Cc2ccccn2)c1)N1Cc2cccnc2C1 [GRN-529] | – | – | – | glutathione conjugation to the alkyne [10]: extensive glutathione conjugation; toxicology finding ([10]; nonhuman primates, 8-week regulatory toxicology study): biliary epithelial hyperplasia; also recorded: hepatotoxicity observed
O=C(Nc1nc(C(F)F)cs1)c1cc(O[C@@H]2CCOC2)c2sccc2n1 [19aM] | 18% | 6.50 | 0.32 µM | –
Cc1cccc(NC(=O)c2cc(O[C@@H]3CCOC3)c3sccc3n2)n1 [19aD] | 2% | 7.66 | 0.022 µM | rat CLhep [7]: 3.45 L/h/kg; human f u,plasma [8]: 0.005
Cc1csc(NC(=O)c2cc(O[C@@H]3CCOC3)cnn2)n1 [27aA] | – | – | – | IC50 (nM) (human mGlu5 [1]; [11]): inactive
O=C(Nc1nccs1)c1cc(O[C@@H]2CCOC2)c2sccc2n1 [19aK] | 3% | 5.75 | 1.83 µM | –
Cc1csc(NC(=O)c2cc(O[C@@H]3CCOC3)c3sc(C)cc3n2)n1 [19cA] | 2% | 6.45 | 0.357 µM | –
O=C(Nc1ccc(F)cn1)c1cc(O[C@@H]2CCOC2)c2ccccc2n1 [19fB] | 15% | 5.59 | 2.65 µM | –

Continued, in another order:

%Glumin (human mGlu5 [1]; human mGlu5-HEK293A cells) | pIC50 (human mGlu5 [1]; [11]) | IC50 (human mGlu5 [1]; [12]) | Structure (SMILES) | other results
3% | 5.76 | 1.78 µM | O=C(Nc1ccc(F)cn1)c1cc(O[C@@H]2CCOC2)c2ccncc2n1 [27gB] | –
3% | 5.88 | 1.57 µM | O=C(Nc1ccc(F)cn1)c1cc(O[C@@H]2CCOC2)cc(F)c1F [27cB] | IC50 (human mGlu5 [1]; in μM, read-out: hmGlu5 IC50): 1.6 µM
12% | 6.17 | 0.682 µM | CO[C@@H](C)COc1cc(C(=O)Nc2nc(C)cs2)nc2ccsc12 [22g] | –
2% | 6.76 | 0.185 µM | Cc1csc(NC(=O)c2cc(OC3COC3)c3sccc3n2)n1 [22e] | –
2% | 6.98 | 0.107 µM | Cc1csc(NC(=O)c2cc(OC3CSC3)c3sccc3n2)n1 [22j] | rat CLhep [7]: 4.1 L/h/kg; human f u,plasma [8]: 0.001
25% | < 5 | > 10 µM | Cc1csc(NC(=O)c2cc(OC3CCOCC3)c3sccc3n2)n1 [22d] | –
2% | 5.69 | 2.05 µM | Cc1csc(NC(=O)c2cc(O[C@@H]3CCOC3)c3ccncc3n2)n1 [27gA] | IC50 (human mGlu5 [1]; in μM, read-out: hmGlu5 IC50): 2.1 µM
